Measurements: ChEMBL document CHEMBL1156829 (Proc Natl Acad Sci U S A, 2008)

Key:
[1] = tested on: Plasmodium falciparum; experiment: NOVARTIS: Inhibition of Plasmodium falciparum 3D7 (drug-susceptible) proliferation in erythrocyte-based infection assay; assay type: functional, organism-based; conditions: Plasmodium falciparum, 3D7
[2] = tested on: Plasmodium falciparum; experiment: NOVARTIS: Inhibition of Plasmodium falciparum W2 (drug-resistant) proliferation in erythrocyte-based infection assay; assay type: functional, organism-based; conditions: Plasmodium falciparum, W2; read-out: EC50
[3] = NOVARTIS: Cytotoxicity against human hepatocellular carcinoma cell line (Huh7); assay type: toxicity, cell-based, Huh-7; conditions: Huh7 cells (hepatocellular carcinoma cell line)

Row | Compound | EC50 [1] | EC50 [2] | CC50 [3]
1 | C=C[C@H]1CN2CC[C@H]1C[C@H]2[C@H](OC(C)=O)c1ccnc2ccccc12 | 1460 nM | 590 nM | > 10000 nM
2 | OC(CN1CCN(CC(O)Cn2c3ccccc3c3cc(Br)ccc32)CC1)Cn1c2ccccc2c2ccccc21 (configuration not stated) | > 1260 nM | 576 nM | > 10000 nM
3 | C/C=C/c1n(C)c2ccccc2[n+]1C | 501 nM | 589 nM | > 10000 nM
4 | O=C(CCl)Nc1ccc(Cl)cc1 | 544 nM | 342 nM | 5700 nM
5 | COc1ccc(/C=C\c2nc(=O)c3ccccc3o2)cc1 | 697 nM | 587 nM | > 10000 nM
6 | CCN1/C(=C/C=C/c2oc3ccc4ccccc4c3[n+]2CC)Oc2ccc3ccccc3c21 | > 1250 nM | 578 nM | > 10000 nM
7 | CC(C)N1CCCC(C(=O)Nc2ccc(-c3nc4ccccc4[nH]3)cc2)C1 (configuration not stated) | 969 nM | 593 nM | > 10000 nM
8 | COc1cc(OC)cc(C(=O)N2CCN(Cc3cccc(Br)c3)CC2)c1 | > 12500 nM | 5920 nM | > 100000 nM
9 | CCCCCCCn1c2c(c(=N)c3ccccc31)CCC2 | 277 nM | 231 nM | 3860 nM
10 | COc1ccccc1NC(=O)CCN1CCCC(C)C1 (configuration not stated) | > 1650 nM | > 598 nM | > 10000 nM
11 | CCN(CC)CCN(C)C1CCc2c(c(C(=O)N3CCCC3)nn2C)C1 (configuration not stated) | > 424 nM | > 738 nM | 12400 nM
12 | CN(C)c1cccc(Nc2cc(-c3ccc(CC(N)C(=O)O)cc3)nc3ccnn23)c1 (configuration not stated) | 600 nM | 594 nM | > 10000 nM
13 | COC(=O)C1=C(C)N(C)C(C)=C(C(=O)OC)C1c1ccc(C)cc1 | > 811 nM | > 567 nM | > 9490 nM
14 | COc1ccc2cc(C(C)=NO)ccc2c1 | > 12500 nM | > 5970 nM | > 100000 nM
15 | COc1ccccc1C(=O)NN=C(C)c1cccnc1 | > 1250 nM | > 602 nM | > 10000 nM
16 | CSC1=NC(C)(C)CC2(CC(c3ccc(C)cc3)c3cc(Cl)c(O)cc3O2)N1 (configuration not stated) | 993 nM | 602 nM | > 10000 nM
17 | c1ccc2c(NC3CCCC3)nc(Nc3ccc4c(c3)OCO4)nc2c1 | 525 nM | 753 nM | 12800 nM
18 | C[n+]1c(-c2ccccc2)cc(-c2ccccc2)cc1-c1ccccc1 | > 1020 nM | > 590 nM | > 10000 nM
19 | CCCCOc1c2ccccc2nc2ccccc12 | > 1250 nM | > 592 nM | > 10000 nM
20 | OC(CNc1cccc2ccccc12)Cn1c2ccccc2c2ccccc21 (configuration not stated) | 2590 nM | 883 nM | 14900 nM
21 | CCCCCN(C(=O)c1cccc([N+](=O)[O-])c1)C(CC)c1nc2ccccc2c(=O)n1-c1ccccc1OC (configuration not stated) | > 1250 nM | 591 nM | > 10000 nM
22 | CCC1=NN2C(=N)/C(=C/c3cn(CCOc4cccc(C)c4)c4ccccc34)C(=O)N=C2S1 | > 1250 nM | > 572 nM | > 10000 nM
23 | Cc1ccc(O)c(NC(=O)c2cnn3c(C(F)(F)F)cc(-c4ccc(F)cc4)nc23)c1 | 10500 nM | 5720 nM | > 100000 nM
24 | C=CC1CN2CCC1CC2[C@H](O)c1ccnc2ccc(O)cc12 (some centres not stated) | 404 nM | 5720 nM | > 100000 nM
25 | CCOC(=O)c1sc(NC(=O)CSc2nnc(CNC(=O)COc3ccc(Cl)cc3)n2C)c(C(=O)OCC)c1C | 1080 nM | > 601 nM | > 10000 nM
26 | CCc1ccc(NC(=O)c2ccc(F)c(S(=O)(=O)N3CCN(C)CC3)c2)cc1 | > 1250 nM | > 584 nM | > 10000 nM
27 | Cc1cc(NS(=O)(=O)c2ccc(N=Cc3ccc(C#N)cc3)cc2)no1 | > 1640 nM | > 582 nM | > 10000 nM

Row | Compound | EC50 [1] | EC50 [2] | CC50 [3]
28 | COc1ccc(C(=O)C(C)[n+]2cccc3ccc4cccnc4c32)cc1 (configuration not stated) | 195 nM | > 577 nM | > 10000 nM
29 | NC(=S)NN=C1c2ccccc2-c2nc3nonc3nc21 | 1130 nM | 582 nM | > 10000 nM
30 | C=C(C)[C@@]12O[C@@H]1[C@@]1(C)C(=CC2=O)CC[C@@H](O)[C@@H]1C | 787 nM | 586 nM | > 10000 nM
31 | CCCC1(CCC)NC(=S)N(c2ccc(C)c(C)c2)N1 | > 1250 nM | > 576 nM | > 10000 nM
32 | COc1ccc(-n2nc(C(C)(C)C)cc2NC(=O)CN(C(=O)c2ccc(C)c([N+](=O)[O-])c2)C(C)C)cc1 | 1550 nM | 1820 nM | 31100 nM
33 | O=C(NCCc1nc(-c2cccnc2)n[nH]1)C12CC3CC(CC(C3)C1)C2 | > 1250 nM | 581 nM | > 10000 nM
34 | CCCCCCC(NC(=O)OCc1ccccc1)S(=O)(=O)c1ccc(C)cc1 (configuration not stated) | > 12500 nM | 5800 nM | > 100000 nM
35 | NS(=O)(=O)c1ccc(CCNC(=O)/C=C/c2ccc3c(c2)OCO3)cc1 | > 1400 nM | > 583 nM | > 10000 nM
36 | CCN(CC)c1ccc(C=C(C#N)c2nc3ccccc3[nH]2)o1 | 3350 nM | > 2670 nM | 46200 nM
37 | COc1ccc(N(CC(=O)Nc2cc(OC)ccc2OC)S(=O)(=O)c2ccc(C)cc2)cc1 | > 1250 nM | > 583 nM | > 10000 nM
38 | COc1ccc(OCC(O)CNC2CCN(CC(O)COc3ccc(Cl)c(Cl)c3)CC2)cc1 (configuration not stated) | 328 nM | 524 nM | 9140 nM
39 | c1ccc(-c2cc(NCCCN3CCOCC3)nc(-c3ccccn3)n2)nc1 | > 1010 nM | 586 nM | > 10000 nM
40 | c1ccc(-c2ccccc2OCCNCCN2CCOCC2)cc1 | 10100 nM | 2700 nM | 46800 nM
41 | O=C(Cn1c2ccccc2c(=O)c2ccc(Cl)cc21)Nc1cccc(Cl)c1 | 934 nM | 589 nM | > 10000 nM
42 | CCCCCCN(C(=O)COCc1ccccc1)C(C)c1nc2ccccc2c(=O)n1-c1cccc(Cl)c1C (configuration not stated) | 1160 nM | 596 nM | > 10000 nM
43 | Nc1cc(-c2cccs2)n[nH]1 | > 11200 nM | > 5810 nM | > 100000 nM
44 | CN(CCCNc1ccnc2cc(Cl)ccc12)S(=O)(=O)c1ccc(Cl)c([N+](=O)[O-])c1 | 243 nM | 185 nM | 3140 nM
45 | CCOc1ccccc1-n1c(C(C)N(Cc2ccccc2)C(=O)Nc2ccccc2OC)nc2ccccc2c1=O (configuration not stated) | 484 nM | 397 nM | > 6650 nM
46 | CCc1cc(C(=O)OC)c(NC(=S)NC(C)c2ccncc2)s1 (configuration not stated) | 4550 nM | 5160 nM | > 86900 nM
47 | Brc1ccc2[nH]c3nc4ccccc4nc3c2c1 | > 12500 nM | > 5920 nM | > 100000 nM
48 | Cc1ccc(NC(=O)C(C)Sc2nnc(-c3ccc(O)cc3)o2)cc1 (configuration not stated) | > 1250 nM | 601 nM | > 10000 nM
49 | O=C(NCSC1=NCCS1)c1ccccc1 | > 12500 nM | > 6030 nM | > 100000 nM
50 | CCOC(=O)C1=C(N)OC2=C(C(=O)CC(c3ccccc3)C2)C1c1ccc(Cl)cc1Cl (configuration not stated) | > 1250 nM | > 600 nM | > 10000 nM
51 | Cc1cc(C)cc(-n2c(C)cc(/C=C3/SC(=Nc4ccc(Br)cc4)NC3=O)c2C)c1 | 325 nM | 588 nM | > 10000 nM
52 | CC(C)(C)NC(=O)C(c1ccncc1)N(Cc1ccccc1Cl)C(=O)c1ccc(-c2ccccc2)[nH]1 (configuration not stated) | > 6470 nM | > 3990 nM | 67400 nM
53 | CCCCCN(C(=O)c1ccc2ccccc2c1)C(CC)c1nc2ccccc2c(=O)n1-c1ccc(Cl)cc1C (configuration not stated) | 961 nM | 587 nM | > 10000 nM
54 | CCN1CCN(CCN2C(=O)C3C(C(=O)Nc4ccc(C(C)C)cc4)C4C=CC3(O4)C2C(=O)NC2CCCCC2)CC1 (configuration not stated) | > 12500 nM | 5820 nM | > 100000 nM
